Source: US20220340983A1, “SYSTEMS AND ASSAYS FOR IDENTIFYING PU.1 INHIBITORS” (Massachustts Institute of Technology, priority 2019, published 2022)

Columns and labels:
iPSC-microglia [1] = assay: Cell viability in iPSC-microglia; assay type: cell-based, human
Protocol: (§1) FIGS. 10A-10D show anti-inflammatory properties of A11 after IFNγ treatment on human induced pluripotent stem cell derived microglia. Cell viability is shown in FIG. 10A as measured with CellTiter Glo (Promega) in untreated (vehicle), A11 (2.5 μM) treated, IFNγ (25 ng/mL) treated and A11 +IFNγ treated cells. The morphology (round represent un-activated and elongated, filamentous represent activated by IFNγ) of these same conditions is shown in FIGS. 10B and quantified in FIG. 10C.
(§2) Human induced pluripotent stem cell derived microglia (iPSC-microglia) were activated with IFN-gamma (25 ng/mL, 3 days) and co-treated with A11 (2.5 μM, 2 days).
(§3) A concentration response curve was performed for cell viability and myelin uptake (FIG. 12A) in iPSC-microglia. Myelin uptake was measured by uptake of pHrodo-GFP-labelled wild-type mouse myelin particles (FIG. 12B). […] The IC50s obtained for these assays was in the low nM range, matching the data obtained in BV2 cells.

iPSC-microglia [2] = assay: mRNA expression (RTqPCR) in IFN-gamma activated iPSC-microglia; assay type: cell-based, human; conditions: IFN-gamma 25 ng/mL 3 days, co-treated with A11 2.5 μM 2 days
Protocol: as §1, §2

iPSC-microglia [3] = assay: Uptake of pHrodo-GFP-labelled mouse myelin particles in iPSC-microglia; assay type: cell-based, human; conditions: concentration response curve, after 48 h
Protocol: FIGS. 12A-12B show the effects of A11 on cell viability and myelin uptake after 48 h.
as §3

iPS and ES-microglia [4] = assay: Intracellular neutral lipid accumulation (BODIPY staining) in microglia; assay type: cell-based, human
Protocol: (§4) Top row: Effect of a 2-day treatment with DPBS (10 μL/mL), IFNγ (25 ng/mL), TNFα (25 ng/mL), TGFβ (25 ng/mL), IL1β (25 ng/mL), LPS (25 ng/mL), ATP (100 nM), CD200 (100 ng/mL), IFNα (25 ng/mL), IL12 (5 ng/mL), CX3CL1 (100 ng/mL), CCL5 (100 ng/mL), PMA (10 ng/mL), IFNβ (10 ng/mL), IL33 (10 ng/mL), and IL4 (100 ng/mL). n=52 for DPBS, n=9 for all other inflammatory molecules, except IL33 where n=3. Bottom row: effect after co-application with A11 (20 nM). Scale bar 10 μm. […] Student's unpaired, two sided t-test, ****P≤0.0001, ***P≤0.001, **P≤0.01, *P≤0.05. […] Top row: An increase in number of cells per well with ≥2 BODIPY-positive structures was observed after a 2-day treatment with IFNγ (25 ng/mL), TNFα (25 ng/mL) and IL33 (10 ng/mL) as compared to DPBS treatment. […] Student's unpaired, two-sided t-test, ***P≤0.001, **P≤0.01, *P≤0.05. […] A 2-day treatment with IFNγ (25 ng/mL) caused increase in ATP levels that was reversed by A11 (20 nM) treatment in iPS (left panel) and ES-microglia (right panel). Student's unpaired, twosided t-test, **P≤0.01. […]
(§5) FIGS. 17A-17H show results from comparing the effects of multiple inflammatory molecules in iPS-microglia. […] Quantification based on total Vybrant DiI-positive surface area divided by number of Hoechst positive cells per field of view. […]

iPS and ES-microglia [5] = assay: ATP levels (CellTiter-Glo luminescence per well) in microglia; assay type: cell-based, human
Protocol: as §4, §5

iPS and ES-microglia [6] = assay: Average cell size (Vybrant DiI-positive surface area per Hoechst-positive cell) in microglia; assay type: cell-based, human; conditions: A11 alone ≤20 nM
Protocol: as §4, §5

multiple cell lines = assay: Time course of A11 efficacy after application; assay type: cell-based; conditions: A11 obtained from several vendors
Description: The gene modulation was reproduced in unmodified BV2 cells and primary mouse microglia. FIG. 14B: Concentration-response curve of A11 from multiple vendors, measured as percent reduction of luminescence. Non-linear fit with Hill's equation with baseline fixed to 0. FIG. 14C: Time course for reduction of mRNA levels of luciferase and il1β as well as luminescence emission in BV2 PU.1-Luciferase cells. FIGS. 14D-14E: Time and concentration-response curve (of pHrodo-labelled particles) for uptake of pHrodo-labelled Zymosan A (FIG. 14D) and mouse myelin in (FIG. 14E) in BV2 cells (left panels, respectively in each FIGS. 14D-14E), and iPS-microglia (right panels, respectively in each FIGS. 14D-14E). FIGS.: 14F-14G: Time and concentration-response curves of A11 (FIG. 14F) and DB2313 (FIG. 14G) of Zymosan A uptake in BV2 cells. Left, middle, and right panels show 1, 2 and 3 hours after compound application, respectively. ANOVA followed by Dunnett's post hoc test versus vehicle, black bars indicate P≤0.05.

[7] = concentration response curve, iPSC-microglia, after 48 h

O=S(=O)(NCc1ccncc1)c1ccc(C2CCCCC2)cc1 [Compound A11]
cell viability (CellTiter Glo) (iPSC-microglia [1]; IFN-gamma 25 ng/mL 3 days, co-treated with A11 2.5 μM 2 days): No significant change | IC50 of cell viability (iPSC-microglia [1]; [7]): low nM range | reduction in cell viability (iPSC-microglia [1]; [7]): weak reduction | CCL2 mRNA expression levels (iPSC-microglia [2]): reversal of IL1-beta and CCL2 increases to vehicle treated levels | IL1-beta mRNA expression levels (iPSC-microglia [2]): reversal of IL1-beta and CCL2 increases to vehicle treated levels | IC50 of myelin uptake (iPSC-microglia [3]): low nM range | maximal possible reduction in myelin uptake (iPSC-microglia [3]): 50% | number of cells containing ≥2 BODIPY-positive structures (iPS and ES-microglia [4]; A11 alone <20 nM, iPS and ES-microglia): no effect | number of cells with ≥2 BODIPY-positive structures, increase by inflammatory molecules (iPS and ES-microglia [4]; iPS-microglia, 2-day treatment with IFNγ, TNFα or IL33 plus A11): reversed this increase | ATP levels, increase caused by IFNγ (iPS and ES-microglia [5]; 2-day IFNγ 25 ng/mL plus A11 20 nM): reversed | amount of ATP per well (iPS and ES-microglia [5]; A11 alone ≤20 nM): no effect | average cell size versus DPBS treatment (iPS and ES-microglia [6]): no effects | time after application at which efficacy starts (multiple cell lines): 3 h
